26 compounds from patent publication US20260374750A1, “LIGANDS SPECIFICALLY TARGETING VESICULAR GLUTAMATE TRANSPORTERS FOR SUPER-RESOLUTION IMAGING” (SORBONNE UNIVERSITÉ, priority 2021, published 2026) can be followed below.

The test system of this test is VGLUTs (GLU vesicular transport). Briefly: Vesicular glutamate reuptake test ([3H]-glutamate, synaptic vesicles). Type of test: biochemical, rat. The note with it: for EC50: vesicular glutamate transport; for potency in words (EC50): based on EC50. The protocol:
The EC50 was also determined for several of the compounds of the invention.
The vesicular glutamate reuptake was tested as previously described (Kish and Ueda, 1989; Naito and Ueda, 1985; Pietrancosta et al., 2010) with minor modifications. Aliquots of synaptic vesicles […] (obtained by differential centrifugation of rat cortex) were diluted in a solution containing 4 mM HEPES-KOH, pH 7.4 and 0.32M sucrose. The tested compounds were dissolved in 1% ethanol, 1% DMSO (pH was adjusted to 7.4 with 5% KOH) to initial concentrations comprised between 2 mM and 200 μM. The compounds were then diluted to desired final concentrations in a solution containing 10 mM HEPES-KOH, pH 7.4, 0.32 M sucrose, 4 mM KCl, 4 mM MgSO4 (named TPU). The tested compounds were pre-incubated in a solution containing 3 mM ATP-Mg, 1 mM L-aspartic acid, 100 μM glutamate and 0.4 mM […] and 0.4 μM [3H]-Glutamate (1.547 TBq/mmol). After 4 min at 37 °C, the reuptake reaction was initiated by the addition of rat synaptic vesicles. This mixture was incubated for 10 min at 37 °C before adding ice-cold TPU (3.5 mL) and rapidly filtering it through a membrane filter ([…], Millipore MF reference HAWP02500) using a vacuum collector. The filters were washed five times with 3.5 mL of cold TPU and placed in scintillation vials with a scintillation cocktail (optiphase hisafe 3, reference 1200-437, Perkin Elmer). The radioactivity related to the filters was measured in a Beckman LS 6500 scintillation spectrophotometer. The values obtained in the absence of ATP-Mg or in the presence of Carbonyl [COMPOUND LEFT OUT] 3-chlorophenylhydrazone (CCCP, 50 μM reference Sigma C2759) were used to determine the non-specific activity.

Broadly, the EC50 is the concentration at which the effect is half-maximal. Read a low EC50 as an effect from little substance. Take `CCN(CC)c1cc2oc(=O)c(C(=O)O)cc2cc1-n1cc(-c2ccc(-c3ccc(N)cc3)cc2)nn1` [LSP17-1154, 6-(4-(4′-amino-[1,1′-biphenyl]-4-yl)-1H-1,2,3-triazol-1-yl)-7-(diethylamino)-2-oxo-2H-chromene-3-carboxylic Acid]: where the note is “coumarin-derived compounds”, the “% inhibition of GLU vesicular transport at 20 μM” value (“% inhibition” for short) was 50% and the EC50 was 20 µM.

`COc1cc2oc(=O)c(C(=O)O)cc2cc1/N=N/c1ccc(-c2ccc(N)cc2)cc1` [LSP9-4089, (E)-6-((4′-aminobiphenyl-4-yl)diazenyl)-7-methoxy-2-oxo-2H-chromene-3-carboxylic Acid]: the “% inhibition” value (coumarin-derived compounds) was 35%.

On to `CCN(CC)c1cc2oc(=O)c(C(=O)O)cc2cc1C#Cc1ccc(-c2ccc(N)cc2)cc1` [LSP17-1126, 6-((4′-amino-[1,1′-biphenyl]-4-yl)ethynyl)-7-(diethylamino)-2-oxo-2H-chromene-3-carboxylic Acid], for which the “potency in words (EC50)” value is reported as “effective at a very low concentration”. Where the note is “coumarin-derived compounds”, the “% inhibition” value worked out at 100% and the midpoint of the response, the EC50, lay at 5 µM. As for `O=C(O)c1cc2cc(-n3cc(-c4ccccc4)nn3)ccc2oc1=O` [LSP17-1100, 2-oxo-6-(4-phenyl-1H-1,2,3-triazol-1-yl)-2H-chromene-3-carboxylic Acid], under “coumarin-derived compounds”, the “% inhibition” value stood at 48% and the EC50 was determined as 23 µM. The corresponding values for `COc1cc2oc(=O)c(C(=O)O)cc2cc1/N=N/c1ccc(Br)cc1` [LSP9-3164] are 40% and 30 µM. As for `O=C(O)c1cc2cc(C#Cc3ccccc3)ccc2oc1=O` [LSP17-1044, 2-oxo-6-(phenylethynyl)-2H-chromene-3-carboxylic Acid], under “coumarin-derived compounds”, the “% inhibition” value is listed as 30%.

For the compound `O=C(O)c1cc2cc(/N=N/c3ccccc3)c(O)cc2oc1=O` [LSP9-4153, (E)-7-hydroxy-2-oxo-6-(phenyldiazenyl)-2H-chromene-3-carboxylic Acid], the “% inhibition” value (coumarin-derived compounds) is 12%.

`CCN(CC)c1cc2oc(=O)c(C(=O)O)cc2cc1C#Cc1ccccc1` [LSP17-1042, 7-(diethylamino)-2-oxo-6-(phenylethynyl)-2H-chromene-3-carboxylic Acid]: the “% inhibition” value (coumarin-derived compounds) was found to be 12%. As for `O=C(O)c1cc2cc(/C=C/c3ccccc3)ccc2oc1=O` [LSP16-2074, (E)-2-oxo-6-styryl-2H-chromene-3-carboxylic Acid], under “coumarin-derived compounds”, the “% inhibition” value was 30%.

`COc1cc(/N=N/c2ccc(Br)cc2)cc2cc(C(=O)O)c(=O)oc12` [LSP9-3162]: the “% inhibition” value (coumarin-derived compounds) is 42%. `COc1cc2oc(=O)c(C(=O)O)cc2cc1C#Cc1ccccc1` [LSP17-1046, 7-methoxy-2-oxo-6-(phenylethynyl)-2H-chromene-3-carboxylic Acid]: for the setting “coumarin-derived compounds”, the “% inhibition” value turned out to be 48% and the EC50 was 21 µM. `COc1cc(Br)ccc1/N=N/c1cc2cc(C(=O)O)c(=O)oc2cc1OC` [LSP9-4150]: the “% inhibition” value (coumarin-derived compounds) was found to be 15%. With `COc1cc2oc(=O)c(C(=O)O)cc2cc1/C=C/c1ccccc1` [LSP16-2077, (E)-7-methoxy-2-oxo-6-styryl-2H-chromene-3-carboxylic acid], the “% inhibition” value (coumarin-derived compounds) amounted to 30%.

With `O=C(O)c1cc(C(=O)O)c2cc(/C=C/c3ccc(-c4ccc(/C=C/c5ccc6nc(C(=O)O)cc(C(=O)O)c6c5)cc4)cc3)ccc2n1` [LSP13-1173-YL173, 6,6′-2,2′-(biphenyl-4,4′-diyl)bis(ethene-2,1-diyl)diquinoline-2,4-dicarboxylic Acid], under “quinoline-derived compounds”, the “% inhibition” value is 72% and the midpoint of the response, the EC50, lay at 15 µM.

For `O=C(O)c1cc2cc(/N=N/c3ccccc3)ccc2oc1=O` [LSP9-4126, (E)-2-oxo-6-(phenyldiazenyl)-2H-chromene-3-carboxylic Acid], where the note is “coumarin-derived compounds”, the “% inhibition” value worked out at 5%. In the case of `COc1cc2oc(=O)c(C(=O)O)cc2cc1-n1cc(-c2ccccc2)nn1` [LSP17-1116, 7-methoxy-2-oxo-6-(4-phenyl-1H-1,2,3-triazol-1-yl)-2H-chromene-3-carboxylic Acid], where the note is “coumarin-derived compounds”, the “% inhibition” value is recorded as 45% and the EC50 stood at 25 µM.

As to `CCOC(=O)c1cc(C(=O)OCC)c2cc(-c3ccc(-c4ccc(-c5ccc6nc(C(=O)OCC)cc(C(=O)OCC)c6c5)cc4)cc3)ccc2n1` [LSP13-1153-YL153, Tetraethyl 6,6′-(biphenyl-4,4′-diyl)diquinoline-2,4-dicarboxylate], under “quinoline-derived compounds”, the “% inhibition” value is on record as 69% and the EC50 was found to be 12.3 µM. `Nc1ccc(-c2ccc(C#Cc3ccc4oc(=O)c(C(=O)O)cc4c3)cc2)cc1` [LSP17-1125, 6-((4′-amino-[1,1′-biphenyl]-4-yl)ethynyl)-2-oxo-2H-chromene-3-carboxylic Acid]: the “potency in words (EC50)” value is listed as “effective at a very low concentration”. Also, for the setting “coumarin-derived compounds”, the “% inhibition” value is on record as 100% and the EC50 came to 5 µM. In the case of `COc1cc2oc(=O)c(C(=O)O)cc2cc1C#Cc1ccc(-c2ccc(N)cc2)cc1` [LSP17-1127, 6-((4′-amino-[1,1′-biphenyl]-4-yl)ethynyl)-7-methoxy-2-oxo-2H-chromene-3-carboxylic Acid], for the setting “coumarin-derived compounds”, the “% inhibition” value was determined as 40%. On to `COc1cc(Br)ccc1/N=N/c1cc(OC)c2oc(=O)c(C(=O)O)cc2c1` [LSP9-3163], for which, where the note is “coumarin-derived compounds”, the “% inhibition” value came to 9%.

For `O=C(O)c1cc2cc(/N=N/c3ccc(Br)cc3)c(O)cc2oc1=O` [LSP9-5096, (E)-6-((4-bromophenyl)diazenyl)-7-hydroxy-2-oxo-2H-chromene-3-carboxylic Acid], the “% inhibition” value (coumarin-derived compounds) came out at 10%. Consider `O=C(O)c1cc(C(=O)O)c2cc(-c3ccc(-c4ccc(-c5ccc6nc(C(=O)O)cc(C(=O)O)c6c5)cc4)cc3)ccc2n1` [LSP13-1160-YL160, 6,6′-(Biphenyl-4,4′-diyl)diquinoline-2,4-dicarboxylic Acid], for which, for the setting “quinoline-derived compounds”, the “% inhibition” value came to 100% and the EC50 came out at 3.6 µM.

On to `CCN(CC)c1cc2oc(=O)c(C(=O)O)cc2cc1-n1cc(-c2ccccc2)nn1` [LSP17-1153, 7-(diethylamino)-2-oxo-6-(4-phenyl-1H-1,2,3-triazol-1-yl)-2H-chromene-3-carboxylic Acid], for which, where the note is “coumarin-derived compounds”, the “% inhibition” value was 62% and a half-maximal effect (EC50) was put at 15 µM. Consider `O=C(O)c1cc2cc(C#Cc3ccccc3)c(O)cc2oc1=O` [LSP17-1177, 7-hydroxy-2-oxo-6-(phenylethynyl)-2H-chromene-3-carboxylic Acid], for which, where the note is “coumarin-derived compounds”, the “% inhibition” value stood at 20% and the EC50 amounted to 267 µM.

Take `COc1cc2oc(=O)c(C(=O)O)cc2cc1/N=N/c1ccccc1` [LSP9-4108, (E)-7-methoxy-2-oxo-6-(phenyldiazenyl)-2H-chromene-3-carboxylic Acid]: where the note is “coumarin-derived compounds”, the “% inhibition” value is given as 30% and the EC50 was 50 µM. For `O=C(O)c1cc2cc(/N=N/c3ccc(Br)cc3)ccc2oc1=O` [LSP9-3160, (E)-6-((4-bromophenyl)diazenyl)-2-oxo-2H-chromene-3-carboxylic Acid], where the note is “coumarin-derived compounds”, the “% inhibition” value came out at 14%.
